In patent publication US8906928B2, “Substituted pyrazolo-pyrrolo-pyridine-dione compounds” (ArQule, Inc., priority 2009, dated 2014):

Assays:
Format in all cases: cell-based
MDA-MB = assay: MTS assay (cell growth inhibition), MDA-MB; conditions: MDA-MB cells, 72 hours incubation with test compound; concentration not given
Outline: (§1)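 First, seed 3000 cells per well in low-serum (1% FBS) DMEM and culture 18 h. Next, add compounds prepared at 300× in DMSO and diluted 1:40 in DMEM; incubate 72 h. Finally, add MTS/PMS for 4 h and measure absorbance at 492 nm.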

PC-3 = assay: MTS assay (cell growth inhibition), PC-3; conditions: PC-3 cells, 72 hours incubation with test compound; concentration not given
Outline: as §1

PACA-2 = assay: MTS assay (cell growth inhibition), PACA-2; conditions: PACA-2 cells, 72 hours incubation with test compound; concentration not given
Outline: as §1

DLD-1 = assay: MTS assay (cell growth inhibition), DLD-1; conditions: DLD-1 cells, 72 hours incubation with test compound; concentration not given
Outline: as §1

NCI-H1299 = assay: MTS assay (cell growth inhibition), NCI-H1299; conditions: NCI-H1299 cells, 72 hours incubation with test compound; concentration not given
Outline: as §1

Kato III = assay: MTS assay (cell growth inhibition), Kato III; conditions: Kato III cells, 72 hours incubation with test compound; concentration not given
Outline: as §1

SMILES	MTS CELL KILL DATA (% INHIBITION) MDA-MB (MDA-MB)	MTS CELL KILL DATA (% INHIBITION) PC-3 (PC-3)	MTS CELL KILL DATA (% INHIBITION) PACA-2 (PACA-2)	MTS CELL KILL DATA (% INHIBITION) DLD-1 (DLD-1)	MTS CELL KILL DATA (% INHIBITION) NCI-H1299 (NCI-H1299)	MTS CELL KILL DATA (% INHIBITION) Kato III (Kato III)
O=C1c2cnc3[nH]ncc3c2C(=O)N1Cc1cccnc1 [Example 38, 7-(pyridin-3-ylmethyl)pyrazolo[3,4-b]pyrrolo[3,4-d]pyridine-6,8(3H,7H)-dione]	A (A = 80-100% INHIBITION)	C (C = <50% INHIBITION)	A (A = 80-100% INHIBITION)	A (A = 80-100% INHIBITION)	C (C = <50% INHIBITION)	A (A = 80-100% INHIBITION)
O=C1c2cnc3[nH]ncc3c2C(=O)N1CC1=Cc2ccccc2S1(=O)=O [Example 119, 7-[(1,1-dioxido-1-benzothien-2-yl)methyl]pyrazolo[3,4-b]pyrrolo[3,4-d]pyridine-6,8(3H,7H)-dione]	B (B = 50-79% INHIBITION)	C (C = <50% INHIBITION)	C (C = <50% INHIBITION)	C (C = <50% INHIBITION)	C (C = <50% INHIBITION)	C (C = <50% INHIBITION)
COc1cccc(CN2C(=O)c3cnc4[nH]ncc4c3C2=O)c1OC [Example 92, 7-(2,3-dimethoxybenzyl)pyrazolo[3,4-b]pyrrolo[3,4-d]pyridine-6,8(3H,7H)-dione]	C (C = <50% INHIBITION)	C (C = <50% INHIBITION)	C (C = <50% INHIBITION)	C (C = <50% INHIBITION)	C (C = <50% INHIBITION)	C (C = <50% INHIBITION)
COc1ccc(CN2C(=O)c3cnc4[nH]ncc4c3C2=O)c(Cl)c1 [Example 109, 7-(2-chloro-4-methoxybenzyl)pyrazolo[3,4-b]pyrrolo[3,4-d]pyridine-6,8(3H,7H)-dione]	A (A = 80-100% INHIBITION)	A (A = 80-100% INHIBITION)	A (A = 80-100% INHIBITION)	A (A = 80-100% INHIBITION)	A (A = 80-100% INHIBITION)	A (A = 80-100% INHIBITION)
CCCCOc1ccc(CN2C(=O)c3cnc4[nH]ncc4c3C2=O)cc1 [Example 15, 7-(4-butoxybenzyl)pyrazolo[3,4-b]pyrrolo[3,4-d]pyridine-6,8(3H,7H)-dione]	A (A = 80-100% INHIBITION)	B (B = 50-79% INHIBITION)	C (C = <50% INHIBITION)	C (C = <50% INHIBITION)	C (C = <50% INHIBITION)	C (C = <50% INHIBITION)
CC(=O)Nc1cccc(-c2n[nH]c3ncc4c(c23)C(=O)N(CCc2ccccc2)C4=O)c1 [Example 167, N-{3-[6,8-dioxo-7-(2-phenylethyl)-3,6,7,8-tetrahydropyrazolo[3,4-b]pyrrolo[3,4-d]pyridin-1-yl]phenyl}acetamide]	A (A = 80-100% INHIBITION)	A (A = 80-100% INHIBITION)	A (A = 80-100% INHIBITION)	A (A = 80-100% INHIBITION)	A (A = 80-100% INHIBITION)	A (A = 80-100% INHIBITION)
O=C1c2cnc3[nH]nc(-c4cc5ccccc5o4)c3c2C(=O)N1CCc1ccccc1 [Example 158, 1-(1-benzofuran-2-yl)-7-(2-phenylethyl)pyrazolo[3,4-b]pyrrolo[3,4-d]pyridine-6,8(3H,7H)-dione]	B (B = 50-79% INHIBITION)	B (B = 50-79% INHIBITION)	C (C = <50% INHIBITION)	B (B = 50-79% INHIBITION)	A (A = 80-100% INHIBITION)	A (A = 80-100% INHIBITION)
